The source of these data is paper PMC2888773 (Cellular microbiology, 2010).

The experiment deals with Ov-CF-1 (cathepsin F) (Opisthorchis viverrini, UniProt Q5PXS3). The experiment can be described thus: fluorogenic release of NHMec. Format: biochemical. To be noted: autoactivation at pH 4.5, 37 °C, 1 mM DTT, 1 mM EDTA.

In the case of `Cc1cc(=O)oc2cc(NC(=O)[C@H](CCCNC(=N)N)NC(=O)[C@H](CC(C)C)NC(=O)OCc3ccccc3)ccc12` [Z-Leu-Arg-NHMec], the “fluorogenic release of NHMec (ex 380 / em 460 nm)” value is listed as “The rate of hydrolysis of Z-Leu-Arg-NHMec”.
